# In ChEMBL document CHEMBL1201862, “PubChem BioAssay data set” (2004):
# Calls of active or inactive are those of the source.
# Columns and labels:
# [1] = system: HEK293; assay: cells; conditions: Homo sapiens
# [2] = molecular target: T1, Calpain-2 catalytic subunit (Sus scrofa, UniProt P43367); assay: m-calpain protease blockers, concentration series – biochemical, fluorogenic peptide substrate, dose response (AID 1420); type: functional
# T1 sequence (P43367 whole entry): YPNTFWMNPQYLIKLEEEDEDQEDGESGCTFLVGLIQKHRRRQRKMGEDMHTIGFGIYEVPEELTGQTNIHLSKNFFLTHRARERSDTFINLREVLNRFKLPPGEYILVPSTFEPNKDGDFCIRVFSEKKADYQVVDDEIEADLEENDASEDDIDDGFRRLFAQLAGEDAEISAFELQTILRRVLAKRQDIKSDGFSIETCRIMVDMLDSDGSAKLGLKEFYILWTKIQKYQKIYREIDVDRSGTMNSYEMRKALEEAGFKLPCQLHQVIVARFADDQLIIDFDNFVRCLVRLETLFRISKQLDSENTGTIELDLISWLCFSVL
# [3] = system: HEK293; assay: cells; conditions: Homo sapiens; remark: listed apart in the source
# [4] = molecular target: Dual specificity tyrosine-phosphorylation-regulated kinase 1A (Rattus norvegicus, UniProt Q63470); type: biochemical, Homo sapiens; conditions: read-out: AC50
# [5] = system: Vero; assay: cells; type: functional, cell-based; conditions: Chlorocebus sabaeus
# [6] = system: Vero; assay: cells; type: functional; conditions: Chlorocebus sabaeus
# [7] = molecular target: T2, Carboxy-terminal domain RNA polymerase II polypeptide A small phosphatase 1 (Homo sapiens, UniProt Q9GZU7); assay: CTDSP1 inhibitors, concentration-response, biochemical, absorbance readout, ultra-high-throughput screen actives (AID 540297); type: functional
# T2 sequence (Q9GZU7 whole entry): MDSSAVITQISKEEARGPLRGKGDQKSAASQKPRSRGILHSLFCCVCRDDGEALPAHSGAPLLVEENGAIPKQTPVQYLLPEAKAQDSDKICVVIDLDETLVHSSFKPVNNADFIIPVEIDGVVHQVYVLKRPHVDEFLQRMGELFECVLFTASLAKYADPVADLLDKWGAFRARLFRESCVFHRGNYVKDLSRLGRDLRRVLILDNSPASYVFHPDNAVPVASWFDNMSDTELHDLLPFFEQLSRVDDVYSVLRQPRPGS
# [8] = molecular target: Cytochrome P450 3A4 (Homo sapiens, UniProt P08684);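 further: CYP3A4 tested as one member of a cytochrome P450 panel screen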
# [9] = molecular target: Cytochrome P450 2C9 (Homo sapiens, UniProt P11712)
# [10] = molecular target: T3, Cytochrome P450 1A2 (Homo sapiens, UniProt P05177);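 further: PubChem cytochrome P450 panel assay, CYP1A2 panel member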
# T3 sequence (P05177 whole entry): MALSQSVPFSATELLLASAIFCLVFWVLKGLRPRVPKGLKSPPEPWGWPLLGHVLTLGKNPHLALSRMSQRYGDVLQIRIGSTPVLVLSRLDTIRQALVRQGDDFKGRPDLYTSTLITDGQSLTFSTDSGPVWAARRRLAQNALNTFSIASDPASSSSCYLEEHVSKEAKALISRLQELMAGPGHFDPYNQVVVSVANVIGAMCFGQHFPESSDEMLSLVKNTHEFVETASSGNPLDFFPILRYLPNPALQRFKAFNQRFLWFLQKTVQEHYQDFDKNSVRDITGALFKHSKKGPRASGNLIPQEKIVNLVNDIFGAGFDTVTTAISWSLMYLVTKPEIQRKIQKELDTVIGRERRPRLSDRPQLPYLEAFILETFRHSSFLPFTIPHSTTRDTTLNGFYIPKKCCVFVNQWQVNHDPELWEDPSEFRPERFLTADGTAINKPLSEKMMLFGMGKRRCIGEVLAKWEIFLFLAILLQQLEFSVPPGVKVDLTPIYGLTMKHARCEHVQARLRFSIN
# [11] = system: HEK293; assay: cells; type: functional, cell-based; conditions: Homo sapiens
# [12] = system: HEK293; assay: NOD2 signaling inhibitors in MDP-stimulated cells, cell-based, uHTS, luminescence (AID 2001); type: functional; conditions: Homo sapiens
# [13] = system: HEK293; assay: cells; conditions: Homo sapiens; remark: listed apart in the source
# [14] = molecular target: T4, Nucleotide-binding oligomerization domain-containing protein 1 (Homo sapiens, UniProt Q9Y239); assay: blockers of NOD1 pathway activity – revised, SAR follow-up (AID 2333); type: functional
# T4 sequence (Q9Y239 whole entry): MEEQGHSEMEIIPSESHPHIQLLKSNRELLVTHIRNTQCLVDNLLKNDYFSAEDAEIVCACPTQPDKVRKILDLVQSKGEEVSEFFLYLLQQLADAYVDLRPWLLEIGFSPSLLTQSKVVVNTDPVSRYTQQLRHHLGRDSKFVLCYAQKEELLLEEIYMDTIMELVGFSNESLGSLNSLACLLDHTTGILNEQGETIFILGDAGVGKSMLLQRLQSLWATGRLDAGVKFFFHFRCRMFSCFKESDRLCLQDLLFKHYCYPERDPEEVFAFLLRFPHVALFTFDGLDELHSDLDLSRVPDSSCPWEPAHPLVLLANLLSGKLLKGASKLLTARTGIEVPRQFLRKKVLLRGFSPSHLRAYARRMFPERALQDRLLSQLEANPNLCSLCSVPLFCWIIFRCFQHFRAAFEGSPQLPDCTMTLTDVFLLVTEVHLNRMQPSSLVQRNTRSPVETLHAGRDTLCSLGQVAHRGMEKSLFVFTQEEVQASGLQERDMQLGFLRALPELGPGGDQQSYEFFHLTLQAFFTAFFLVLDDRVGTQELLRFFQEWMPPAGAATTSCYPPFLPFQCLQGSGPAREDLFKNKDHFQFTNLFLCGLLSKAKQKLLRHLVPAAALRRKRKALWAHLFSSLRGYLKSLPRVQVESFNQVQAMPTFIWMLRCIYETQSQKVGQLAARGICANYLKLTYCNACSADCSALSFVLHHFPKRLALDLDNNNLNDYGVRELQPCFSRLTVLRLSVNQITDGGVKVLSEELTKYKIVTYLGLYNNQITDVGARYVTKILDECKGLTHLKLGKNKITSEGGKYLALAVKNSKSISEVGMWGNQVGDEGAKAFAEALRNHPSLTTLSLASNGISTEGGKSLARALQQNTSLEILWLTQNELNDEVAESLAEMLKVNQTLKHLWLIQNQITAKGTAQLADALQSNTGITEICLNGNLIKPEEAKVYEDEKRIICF
# [15] = system: HEK293; assay: inhibition of NOD1-driven NF-kB reporter – cell-based, luminescence, uHTS, primary screen (AID 1578); type: functional; conditions: Homo sapiens
# [16] = molecular target: Tumor necrosis factor (Homo sapiens, UniProt P01375); assay: analog potency on TNFa NF-kB signaling – cell-based, revised, SAR follow-up (AID 2337); type: functional
# [17] = system: HEK293; assay: cells; type: functional, cell-based; conditions: Homo sapiens; remark: listed apart in the source
# [18] = molecular target: T5, Rac GTPase-activating protein 1 (Homo sapiens, UniProt Q9H0H5); assay: blockers of MgcRacGAP-driven Rac1 GTP hydrolysis – biochemical, ADP Hunter fluorescence, primary and confirmatory, confirmation (AID 624330); type: functional
# T5 sequence (Q9H0H5 whole entry): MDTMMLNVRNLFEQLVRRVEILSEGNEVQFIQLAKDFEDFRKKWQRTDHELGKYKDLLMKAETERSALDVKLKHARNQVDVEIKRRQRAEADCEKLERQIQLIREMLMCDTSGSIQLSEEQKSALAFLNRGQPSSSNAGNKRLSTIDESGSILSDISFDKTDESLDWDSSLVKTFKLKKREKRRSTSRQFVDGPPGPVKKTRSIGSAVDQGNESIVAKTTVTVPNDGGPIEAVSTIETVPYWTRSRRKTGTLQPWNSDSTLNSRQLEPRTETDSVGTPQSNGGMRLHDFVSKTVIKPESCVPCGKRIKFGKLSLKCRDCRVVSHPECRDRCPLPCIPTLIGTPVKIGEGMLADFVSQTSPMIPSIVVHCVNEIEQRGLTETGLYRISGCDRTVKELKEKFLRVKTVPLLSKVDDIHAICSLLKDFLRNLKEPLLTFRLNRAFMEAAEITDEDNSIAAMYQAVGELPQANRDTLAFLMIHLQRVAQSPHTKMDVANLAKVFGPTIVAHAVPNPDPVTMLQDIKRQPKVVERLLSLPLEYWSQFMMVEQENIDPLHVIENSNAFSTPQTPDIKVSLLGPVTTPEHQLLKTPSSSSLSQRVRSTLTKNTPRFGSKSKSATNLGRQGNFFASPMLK
# Chain of Cytochrome P450 3A4 (P08684 whole entry): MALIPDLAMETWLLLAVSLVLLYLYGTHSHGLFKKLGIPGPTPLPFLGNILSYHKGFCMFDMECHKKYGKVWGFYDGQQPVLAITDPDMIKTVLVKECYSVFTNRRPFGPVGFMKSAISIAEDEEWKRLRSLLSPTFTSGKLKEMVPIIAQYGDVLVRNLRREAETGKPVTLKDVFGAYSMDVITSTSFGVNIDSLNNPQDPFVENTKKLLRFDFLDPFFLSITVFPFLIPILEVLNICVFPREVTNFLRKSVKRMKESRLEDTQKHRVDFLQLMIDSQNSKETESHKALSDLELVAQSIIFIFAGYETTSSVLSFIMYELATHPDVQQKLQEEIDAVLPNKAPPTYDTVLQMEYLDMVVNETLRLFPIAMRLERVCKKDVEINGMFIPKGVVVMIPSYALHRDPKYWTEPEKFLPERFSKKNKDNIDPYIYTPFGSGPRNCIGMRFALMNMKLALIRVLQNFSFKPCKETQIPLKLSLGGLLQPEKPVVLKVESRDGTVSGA
# Chain of Cytochrome P450 2C9 (P11712 whole entry): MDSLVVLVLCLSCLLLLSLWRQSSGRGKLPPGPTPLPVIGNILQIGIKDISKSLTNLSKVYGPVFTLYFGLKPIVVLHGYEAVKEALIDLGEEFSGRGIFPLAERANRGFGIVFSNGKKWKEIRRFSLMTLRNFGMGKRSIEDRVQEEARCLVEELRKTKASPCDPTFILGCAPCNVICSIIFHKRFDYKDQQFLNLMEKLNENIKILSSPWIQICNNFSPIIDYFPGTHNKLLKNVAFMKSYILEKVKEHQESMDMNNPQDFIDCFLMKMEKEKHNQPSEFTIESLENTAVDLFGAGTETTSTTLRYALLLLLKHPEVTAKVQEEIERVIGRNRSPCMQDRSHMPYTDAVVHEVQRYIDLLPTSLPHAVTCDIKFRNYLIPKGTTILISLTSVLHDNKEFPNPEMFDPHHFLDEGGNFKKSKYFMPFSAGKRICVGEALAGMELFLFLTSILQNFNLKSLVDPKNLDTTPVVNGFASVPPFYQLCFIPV
# Chain of Tumor necrosis factor (P01375 whole entry): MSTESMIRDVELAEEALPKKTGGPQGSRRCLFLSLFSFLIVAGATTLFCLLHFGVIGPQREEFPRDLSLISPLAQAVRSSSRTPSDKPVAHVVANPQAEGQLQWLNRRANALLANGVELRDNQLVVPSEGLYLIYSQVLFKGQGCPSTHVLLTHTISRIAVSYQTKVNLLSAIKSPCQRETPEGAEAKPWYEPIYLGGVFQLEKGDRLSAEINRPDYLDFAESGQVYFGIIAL
compound,measurement,setting,value
O=C(NC1CCCC1)C(c1ccsc1)N(Cc1ccccc1)C(=O)Cc1cccs1 (centres undefined),EC50,[1],> 59.7 µM (inactive)
same,IC50,[2],> 50 µM (not active)
same,EC50,[3],> 59.7 µM (inactive)
COc1ccc(-c2coc3cc(O)ccc3c2=O)cc1O [CALYCOSIN],AC50,[4],16.1 µM (active)
CN(C)N=Nc1nc2c(c(=O)n(C)c(=O)n2C)n1CC1CO1 (centres undefined),IC50,[5],21.9 µM (active)
same,CC50,[6],> 25 µM (active)
COc1ccc(/C=N/Nc2ncc(Br)cn2)c(OC)c1,IC50,[7],19.6 µM (active)
O=C(c1cccc(F)c1)N1CCC2(CC1)CCN(c1ccncc1)CC2,AC50,[8],inconclusive
same,AC50,[9],25.1 µM (inconclusive)
COc1ccc(OC(F)(F)F)cc1CC1(C)C(=O)Nc2ccc(S(=O)(=O)NC3CCCCC3)cc21 (centres undefined),EC50,[1],> 59.6 µM (inactive)
same,EC50,[3],> 59.6 µM (inactive)
COc1ccc(C(O)P(=O)(OC(C)C)OC(C)C)cc1OC (centres undefined),AC50,[8],inconclusive
same,AC50,[10],11.2 µM (inconclusive)
Cn1c2ccccc2c(=O)c2ccc(C#CC3(N)CCCCC3)cc21,AC50,[4],23.7 µM (active)
CC(C)OP(=O)(c1ccc(N(C)C)cc1)C(Nc1ccccc1)c1ccccc1 (centres undefined),EC50,[1],> 59.6 µM (inactive)
same,EC50,[3],> 59.6 µM (inactive)
O=C(Nc1cccc(-c2nc3ncccc3o2)c1)c1cc2ccccc2o1,AC50,[4],0.942 µM (active)
Cc1c(-c2ccc(F)cc2)nc(N)c(C#N)c1-c1cccs1,AC50,[8],inconclusive
same,AC50,[10],1.78 µM (inconclusive)
Cc1cccnc1NC(=O)NC(=O)c1ccc(C(C)(C)C)s1,IC50,[5],22.4 µM (active)
same,CC50,[6],> 25 µM (active)
N#CCC(=O)Nc1ccc(C(=O)OCC(=O)Nc2ccc3ccccc3c2)cc1,IC50,[7],68.5 µM (active)
O=C1OC(c2ccc3c(c2)OCO3)=N/C1=C\c1ccc(C(=O)O)cc1,IC50,[7],1.38 µM (active)
O=C(/C=C/c1ccccc1O)c1ccc(Cl)cc1,CC50,[6],19.6 µM (active)
COc1ccc(N2CCN(S(=O)(=O)c3ccc4c(c3)NC(=O)C(C)S4)CC2)cc1 (centres undefined),IC50,[11],4.28 µM (active)
same,IC50,[12],7.5 µM (active)
same,IC50,[13],> 20 µM (inactive)
same,IC50,[14],4.54 µM (active)
same,EC50,[15],4.87 µM (active)
same,IC50,[16],10.2 µM (active)
same,IC50,[17],12.6 µM (active)
COc1nc(N)nc(NC(=O)c2cccs2)c1N=O,IC50,[18],116 µM (active)
same,EC50,[1],> 59.6 µM (inactive)
same,EC50,[3],> 59.6 µM (inactive)
